Literature values, collected in patent publication US12465059B2, “Concentrated formic acid composition and its uses thereof” (priority 2018, dated 2025).

Assays:
[1] = versus Acetic Acid, the second best strongest straight chain Organic Acid
[2] = test system: Rat; conditions: oral

| Structure (SMILES) | times stronger than Acetic Acid (acid strength) [1] | LD 50 [2] |
| --- | --- | --- |
| O=CO [Methanoic acid] | 10 times | – |
| [Cl-].[Na+] [Sodium Chloride] | – | 3000 mg/kg |
